US20250195510A1, “NOVEL METHODS” (priority 2022, published 2025)

What was measured:
[1] = tested on: Sprague-Dawley rats; test: Female urine sniffing test (FUST), LPS-induced anhedonia; type: in vivo, rat; details: LPS 1 mg/kg SC
Text: All other reagents are obtained in the highest purity available from Sigma-Aldrich (St. Louis, MO) unless otherwise noted. […] Sigma-Aldrich, ref #0127: B8) diluted in 0.9% injectable saline while control group animals receive injections of all vehicles matching the experimental conditions. […] Behavioral Evaluation. […] Reward Sniffing Test (also known also as female urine sniffing test (FUST)): In this anhedonia-based assay, rats are brought to a well-ventilated testing room under dim lighting. A sterile cotton-tipped applicator is attached to one wall in the home cage for 1 hour to habituate rats to this new object. For the 2 phases of the 5 minute test, rats are first exposed to a new cotton tip dipped in sterile water as a control that is removed at the end of the 5 minutes; 45 minutes later, another cotton tip previously dipped into fresh rat urine collected from females of the same strain is attached to the cage wall. Male behavior is video recorded and latency to first sniff of the cotton tip and total time spent sniffing the cotton-tipped applicator are determined. In a pilot study, a dose response curve is conducted with varying doses of LPS to select an optimal dose for inducing an anhedonic response in rats. […] SC). […] Control rats are administered saline instead of LPS and vehicle instead of lumateperone. Anhedonia is assessed using FUST (female urine sniffing test) and measuring latency to sniff the reward combined with time spent sniffing the reward. Latency sniffing water is used as a control. The results are shown in the table below (time in seconds) with outliers removed using the MAD Method: […]

[2] = tested on: Sprague-Dawley rats; test: Home cage feeding test (HCFT); type: in vivo, rat; details: naïve rats, Luma 1 mg/kg IP days 1 and 3; control 6.0
Text: Novelty Suppressed Feeding Test (NSFT). This test measures consumption of a familiar food in a novel environment, relying on rodents' aversion to eating in a novel environment after a period of food deprivation ([…] and Dulawa, “Identifying fast-onset antidepressants using rodent models,” Mol. Psychiatry 22:656-665 (2017)). Rats are food-deprived overnight and placed in an open field (76.5×76.5×40 cm^3) with a small amount of food pellets (6 pellets total). At the time of the test, rats are exposed to the open field for the first time (novelty) and allowed to explore it for a maximum of 15 minutes under red light. The latency for the animal to approach the food pellets and take its first bite is manually scored. A home cage feeding test (HCFT) is performed afterwards to ensure latency measured in NSFT is not a matter of difference in hunger. A home cage food intake analysis evaluated the amount of food eaten (in grams) over a period of 10 minutes following the end of the entire test session.

[3] = tested on: inflammatory biomarkers in PBMCs; test: Post-hoc analysis of inflammatory biomarkers in PBMCs, phase 3 trial, schizophrenia with co-morbid depression; type: in vivo, human; details: Day 28, 60 mg lumateperone tosylate once daily
Description: A randomized, double-blind, placebo-controlled, phase 3 clinical trial was conducted with 450 patients with schizophrenia, aged 18 to 60 years, who were experiencing an acute exacerbation of psychosis. Patients were included if they were experiencing an acute exacerbation of psychosis, defined as a total score on the Brief Psychiatric Rating Scale of […] or higher, with a score of 4 or higher on 2 or more positive symptoms, and onset of the acute episode within 4 weeks of screening. Patients were required to have a score of 4 or higher, indicating moderate to severe disease severity, on the Clinical Global Impression-Severity of Illness (CGI-S) at screening and baseline. Severity of illness was confirmed at baseline by a Positive and Negative Syndrome Scale (PANSS) total score of 70 or higher, indicating moderate to extreme symptoms of schizophrenia. A subgroup of these patients experienced co-morbid depression symptoms at baseline (defined as having a Calgary Depression Scale for Schizophrenia (CDSS) score greater than 6 at baseline). Full details of the clinical study were reported in Correll et al., JAMA Psychiatry, 77 (4): 349-358 (2020).
Patients were randomized 1:1:1 (150 patients in each arm) to receive, once daily for 28 days, cither 60 mg lumatepcrone tosylate (42 mg free base), 40 mg lumatepcrone tosylate (28 mg free base), or placebo.
Using blood samples stored from the study, a post-hoc analysis of inflammatory biomarkers in PBMCs from the patients with schizophrenia and co-morbid depression is conducted. […] Day 0 samples are available for 20 patients, while day 28 samples are available only for 18 patients. Mean baseline CDSS is 10.0, and mean baseline PANSS total score is 88.7 in the selected patients.
Samples were processed to isolate PBMC according to standard procedures using the Ficoll-Paque method. Statistical analysis was performed using the paired t-test, two-tailed. Samples were tested for C-reactive protein (CRP), serum amyloid A (SAA), soluble ICAM-1, soluble VCAM-1, IL-1β, TNF-α, IL-6, IL-10, IL-2, IL-8, IL-13, and IFN-γ. ICAM-1 and VCAM-1 are expressed by the vascular endothelium, macrophages, and lymphocytes. Upon cytokine stimulation, their concentrations greatly increase. ICAM-1 can be induced by IL-1ß and TNF. ICAM and VCAM proteins may also be involved in pathogen transit into CNS.
The results are shown in the table below (biomarker levels expressed in ng/ml; some values of N are less than the patient totals due to samples with levels of biomarker below the minimum for quantification): […]

CN1CCN2c3c(cccc31)[C@@H]1CN(CCCC(=O)c3ccc(F)cc3)CC[C@@H]12 [Lumateperone, 4-((6bR,10aS)-3-methyl-2,3,6b,9,10,10a-hexahydro-1H-pyrido[3′,4′: 4,5]pyrrolo[1,2,3-de]quinoxaline-8 (7H)-yl)-1-(4-fluorophenyl)-1-butanone]
FUST Time sniffing reward ([1]; Luma 1 mg/kg IP 24 h before and 24 h after LPS, control 16.99, LPS + Vehicle 11.11): 17.38 s | FUST Latency sniffing reward ([1]; Luma 1 mg/kg IP 24 h before and 24 h after LPS, control 28.00, LPS + Vehicle 164.2): 68.13 s | FUST Latency sniffing water ([1]; control test, Luma 1 mg/kg IP before and after LPS, control 190.56, LPS + Vehicle 274.27): 207.60 s | Control HCFT food eaten [2]: 6.0 g | IL-10 level in PBMC, Median ([3]; Day 0 0.07): 0.21 ng/mL | IL-10 level in PBMC, Average ([3]; Day 0 0.09): 2.14 ng/mL | IL-2 level in PBMC, Median ([3]; Day 0 0.17): 0.25 ng/mL | IL-2 level in PBMC, Average ([3]; Day 0 0.18): 0.37 ng/mL | IL-6 level in PBMC, Median ([3]; Day 0 0.18): 0.32 ng/mL | IL-6 level in PBMC, Average ([3]; Day 0 0.20): 0.55 ng/mL | TNF-α level in PBMC, Average ([3]; Day 0 0.27): 0.83 ng/mL | TNF-α level in PBMC, Median ([3]; Day 0 0.27): 0.43 ng/mL | IFN-γ level in PBMC, Median ([3]; Day 0 1.01): 0.71 ng/mL | IFN-γ level in PBMC, Average ([3]; Day 0 1.11): 0.86 ng/mL | IL-13 level in PBMC, Median ([3]; Day 0 1.11): 1.56 ng/mL | IL-13 level in PBMC, Average ([3]; Day 0 1.31): 2.38 ng/mL | IL-1β level in PBMC, Median ([3]; Day 0 1.65): 0.74 ng/mL | IL-1β level in PBMC, Average ([3]; Day 0 1.76): 1.01 ng/mL | IL-8 level in PBMC, Median ([3]; Day 0 36.3): 44.0 ng/mL | sVCAM-1 level in PBMC, Median ([3]; Day 0 60.1): 42.0 ng/mL | CRP level in PBMC, Median ([3]; Day 0 61.3): 38.0 ng/mL | IL-8 level in PBMC, Average ([3]; Day 0 74.5): 105.3 ng/mL | CRP level in PBMC, Average ([3]; Day 0 78.8): 50.5 ng/mL | sVCAM-1 level in PBMC, Average ([3]; Day 0 78.9): 49.1 ng/mL | sICAM-1 level in PBMC, Median ([3]; Day 0 136.9): 83.6 ng/mL | sICAM-1 level in PBMC, Average ([3]; Day 0 184.8): 119.6 ng/mL | SAA level in PBMC, Median ([3]; Day 0 233.6): 147.3 ng/mL | SAA level in PBMC, Average ([3]; Day 0 286.9): 157.9 ng/mL
